Results as given in the supplement of paper PMC7017272.
± gives the standard deviation of the averaged measurements. Blank lines part the entries; values can stand above or below the molecule they belong to.

Tests used:
Settings in all cases: treatment time: 3 days
[1] = test system: UT-SCC-24A; assay: maximal % inhibition of viability relative to DMSO; higher = stronger effect
Description: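 HNSCC cell lines (500 cells/well, 384-well) were cultured on plastic, on top of (2D) or embedded (3D) in Matrigel or human leiomyoma matrix Myogel (500 ug/mL; Myogel 3D mixed with rat collagen I). Cells were treated for 3 days with 5 ten-fold concentrations of each drug, and viability was read by CellTiter-Glo. Viability was normalised to DMSO (0% inhibition) and 100 uM benzethonium chloride (100% inhibition) controls and fitted with the FIMM DSRT pipeline to give IC50 (nM), maximal % inhibition and the drug sensitivity score (DSS). Suffixes _1/_2/_3 on drug names are replicates.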

[2] = test system: UT-SCC-24B; assay: drug sensitivity score (DSS); higher = more sensitive; extreme values may be limits of the assay
How it was run: (§1)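 Using 384-well plates, 500 cells/well of HPV-negative HNSCC cell lines were grown on plastic, on 500 µg/mL Matrigel or Myogel coatings, or embedded in Matrigel or Myogel with rat collagen I. They were treated with compounds at five 10-fold concentrations for 3 days, and luminescence from CellTiter-Glo 2.0 was normalised to vehicle (0.1% DMSO) and cell-killing control wells. IC50, maximal inhibition and drug sensitivity score were derived from percent-inhibition dose–response curves in the FIMM pipeline.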

[3] = test system: UT-SCC-28; assay: as above
How it was run: as §1

[4] = test system: UT-SCC-40; assay: as above
How it was run: as §1

[5] = test system: UT-SCC-44; assay: as above
How it was run: as §1

[6] = test system: UT-SCC-73; assay: as above
How it was run: as §1

[7] = test system: UT-SCC-81; assay: as above
How it was run: as §1

[8] = test system: UT-SCC-8; assay: as above
How it was run: as §1

[9] = test system: UT-SCC-106A; assay: relative IC50 (midpoint of the fitted curve; maximal inhibition may be below 50%); higher = less potent
How it was run: as §1

[10] = test system: UT-SCC-14; assay: as above
How it was run: as §1

[11] = test system: UT-SCC-24B; assay: as above
How it was run: as §1

[12] = test system: UT-SCC-28; assay: as above
How it was run: as §1

[13] = test system: UT-SCC-40; assay: as above
How it was run: as §1

[14] = test system: UT-SCC-42A; assay: as above
How it was run: as §1

[15] = test system: UT-SCC-42B; assay: as above
How it was run: as §1

[16] = test system: UT-SCC-44; assay: as above
How it was run: as §1

[17] = test system: UT-SCC-73; assay: as above
How it was run: as §1

[18] = test system: UT-SCC-81; assay: as above
How it was run: as §1

[19] = test system: UT-SCC-8; assay: as above
How it was run: as §1

[20] = culture condition: embedded in Matrigel
[21] = culture condition: embedded in Myogel + collagen I
[22] = culture condition: on top of Matrigel
[23] = culture condition: on top of Myogel
[24] = culture condition: plastic 2D (no matrix)

relative IC50 [9, 20]: 8.12 nM
relative IC50 [9, 21]: > 989 nM
relative IC50 [9, 22]: 7.76 nM
relative IC50 [9, 24]: 11.7 nM
relative IC50 [10, 20]: 30.7 nM
relative IC50 [10, 22]: 39.6 nM
relative IC50 [10, 23]: 47.4 nM
relative IC50 [10, 24]: 40.8 nM
relative IC50 [11, 20]: 31.2 nM
relative IC50 [11, 22]: 23 nM
relative IC50 [11, 24]: 12.7 nM
relative IC50 [12, 20]: > 989 nM
relative IC50 [12, 21]: > 989 nM
relative IC50 [13, 20]: 21.3 nM
relative IC50 [13, 22]: 24.2 nM
relative IC50 [13, 24]: 33.1 nM
relative IC50 [14, 20]: 28.9 nM
relative IC50 [14, 22]: 11.4 nM
relative IC50 [14, 23]: 21.2 nM
relative IC50 [14, 24]: 19 nM
relative IC50 [15, 20]: 17.3 nM
relative IC50 [15, 22]: 17.7 nM
relative IC50 [15, 24]: 27.5 nM
relative IC50 [16, 21]: > 989 nM
relative IC50 [16, 24]: > 989 nM
relative IC50 [17, 20]: 32 nM
relative IC50 [18, 20]: 6.81 nM
relative IC50 [18, 22]: 15.3 nM
relative IC50 [18, 24]: 35.7 nM
relative IC50 [19, 20]: 19.7 nM
relative IC50 [19, 22]: 21 nM
relative IC50 [19, 24]: 21.6 nM
Structure (SMILES): CN(C)C/C=C/C(=O)Nc1cc2c(Nc3ccc(F)c(Cl)c3)ncnc2cc1O[C@H]1CCOC1 [Afatinib]
maximal % inhibition of viability [1, 20]: 79.9 ± 1.1%
maximal % inhibition of viability [1, 21]: 38.8 ± 2.3%
maximal % inhibition of viability [1, 22]: 68.23 ± 0.59%
maximal % inhibition of viability [1, 23]: 20.3 ± 3.7%
maximal % inhibition of viability [1, 24]: 67.1 ± 4%
drug sensitivity score [2, 20]: 11.4 ± 0.72 DSS
drug sensitivity score [2, 21]: 4.57 ± 0.58 DSS
drug sensitivity score [2, 22]: 10.9 ± 0.96 DSS
drug sensitivity score [2, 23]: 2.3 ± 0.7 DSS
drug sensitivity score [2, 24]: 16.1 ± 0.56 DSS
drug sensitivity score [3, 20]: 0 DSS
drug sensitivity score [3, 21]: 0 DSS
drug sensitivity score [3, 22]: 0.233 ± 0.32 DSS
drug sensitivity score [3, 24]: 0 DSS
drug sensitivity score [4, 20]: 16 ± 1.1 DSS
drug sensitivity score [4, 21]: 2.93 ± 3.1 DSS
drug sensitivity score [4, 22]: 14.5 ± 1.1 DSS
drug sensitivity score [4, 23]: 3.37 ± 1.5 DSS
drug sensitivity score [4, 24]: 10.2 ± 1.3 DSS
drug sensitivity score [5, 20]: 0.233 ± 0.4 DSS
drug sensitivity score [5, 21]: 0 DSS
drug sensitivity score [5, 22]: 0 DSS
drug sensitivity score [5, 23]: 0 DSS
drug sensitivity score [5, 24]: 0 DSS
drug sensitivity score [6, 20]: 2.43 ± 1.8 DSS
drug sensitivity score [6, 21]: 3.1 ± 5.4 DSS
drug sensitivity score [6, 22]: 0 DSS
drug sensitivity score [6, 23]: 0.433 ± 0.75 DSS
drug sensitivity score [6, 24]: 1.47 ± 1.2 DSS
drug sensitivity score [7, 20]: 23 ± 2.7 DSS
drug sensitivity score [7, 21]: 6.47 ± 11 DSS
drug sensitivity score [7, 22]: 18.5 ± 2.3 DSS
drug sensitivity score [7, 23]: 1.6 ± 0.66 DSS
drug sensitivity score [7, 24]: 12.5 ± 1.2 DSS
drug sensitivity score [8, 20]: 19.8 ± 0.42 DSS
drug sensitivity score [8, 21]: 0.333 ± 0.58 DSS
drug sensitivity score [8, 22]: 19 ± 0.44 DSS
drug sensitivity score [8, 23]: 8.37 ± 4.4 DSS
drug sensitivity score [8, 24]: 18 ± 1.5 DSS

relative IC50 [9, 20]: 336 nM
relative IC50 [9, 21]: 862 nM
relative IC50 [9, 22]: 488 nM
relative IC50 [9, 23]: 1470 nM
relative IC50 [9, 24]: 936 nM
relative IC50 [10, 20]: 1210 nM
relative IC50 [10, 21]: 1810 nM
relative IC50 [10, 22]: 1510 nM
relative IC50 [10, 23]: 1930 nM
relative IC50 [10, 24]: 2000 nM
relative IC50 [11, 20]: 891 nM
relative IC50 [11, 21]: 736 nM
relative IC50 [11, 22]: 874 nM
relative IC50 [11, 23]: 1150 nM
relative IC50 [11, 24]: 850 nM
relative IC50 [12, 20]: 330 nM
relative IC50 [12, 21]: 1050 nM
relative IC50 [12, 22]: 244 nM
relative IC50 [12, 24]: 352 nM
relative IC50 [13, 20]: 1240 nM
relative IC50 [13, 21]: 1560 nM
relative IC50 [13, 22]: 1520 nM
relative IC50 [13, 23]: 1870 nM
relative IC50 [13, 24]: 1820 nM
relative IC50 [14, 20]: 1510 nM
relative IC50 [14, 21]: 1110 nM
relative IC50 [14, 22]: 1320 nM
relative IC50 [14, 23]: 1410 nM
relative IC50 [14, 24]: 1090 nM
relative IC50 [15, 20]: 1900 nM
relative IC50 [15, 22]: 2320 nM
relative IC50 [15, 23]: 2160 nM
relative IC50 [15, 24]: 2390 nM
relative IC50 [16, 20]: 279 nM
relative IC50 [16, 21]: 1450 nM
relative IC50 [16, 22]: 452 nM
relative IC50 [16, 24]: 1130 nM
relative IC50 [17, 20]: 1110 nM
relative IC50 [17, 21]: 1170 nM
relative IC50 [17, 22]: 1450 nM
relative IC50 [17, 23]: 1540 nM
relative IC50 [17, 24]: 1670 nM
relative IC50 [18, 20]: 396 nM
relative IC50 [18, 21]: 748 nM
relative IC50 [18, 22]: 1300 nM
relative IC50 [18, 23]: 1040 nM
relative IC50 [18, 24]: 1140 nM
relative IC50 [19, 20]: 1330 nM
relative IC50 [19, 21]: 2370 nM
relative IC50 [19, 22]: 1380 nM
relative IC50 [19, 23]: 1280 nM
relative IC50 [19, 24]: 1410 nM
Structure (SMILES): Cc1c(CN2CCN(C(=O)[C@H](C)O)CC2)sc2c(N3CCOCC3)nc(-c3cnc(N)nc3)nc12 [Apitolisib]
maximal % inhibition of viability [1, 20]: 90.3 ± 1.6%
maximal % inhibition of viability [1, 21]: 85.4 ± 2.3%
maximal % inhibition of viability [1, 22]: 87.7 ± 0.2%
maximal % inhibition of viability [1, 23]: 83.4 ± 1.9%
maximal % inhibition of viability [1, 24]: 88.57 ± 0.29%
drug sensitivity score [2, 20]: 10.8 ± 1.8 DSS
drug sensitivity score [2, 21]: 11.8 ± 1.1 DSS
drug sensitivity score [2, 22]: 10.6 ± 0.76 DSS
drug sensitivity score [2, 23]: 9.6 ± 0.2 DSS
drug sensitivity score [2, 24]: 11.1 ± 1 DSS
drug sensitivity score [3, 20]: 10.4 ± 1.3 DSS
drug sensitivity score [3, 21]: 9 ± 2 DSS
drug sensitivity score [3, 22]: 12.4 ± 1.5 DSS
drug sensitivity score [3, 24]: 10.8 ± 0.51 DSS
drug sensitivity score [4, 20]: 9.4 ± 0.27 DSS
drug sensitivity score [4, 21]: 7.23 ± 0.25 DSS
drug sensitivity score [4, 22]: 8.07 ± 0.49 DSS
drug sensitivity score [4, 23]: 5.3 ± 1.7 DSS
drug sensitivity score [4, 24]: 6.33 ± 1.2 DSS
drug sensitivity score [5, 20]: 9.77 ± 0.86 DSS
drug sensitivity score [5, 21]: 6.17 ± 1.4 DSS
drug sensitivity score [5, 22]: 8.4 ± 0.1 DSS
drug sensitivity score [5, 23]: 8.03 ± 2.9 DSS
drug sensitivity score [5, 24]: 6.67 ± 0.55 DSS
drug sensitivity score [6, 20]: 9 ± 1.2 DSS
drug sensitivity score [6, 21]: 8.2 ± 1.4 DSS
drug sensitivity score [6, 22]: 7.8 ± 0.36 DSS
drug sensitivity score [6, 23]: 7.37 ± 0.15 DSS
drug sensitivity score [6, 24]: 7.23 ± 1.2 DSS
drug sensitivity score [7, 20]: 14.9 ± 3 DSS
drug sensitivity score [7, 21]: 10.4 ± 0.81 DSS
drug sensitivity score [7, 22]: 8.87 ± 0.71 DSS
drug sensitivity score [7, 23]: 8.53 ± 1.1 DSS
drug sensitivity score [7, 24]: 8.8 ± 1.8 DSS
drug sensitivity score [8, 20]: 9.63 ± 0.38 DSS
drug sensitivity score [8, 21]: 6.2 ± 2.1 DSS
drug sensitivity score [8, 22]: 9.23 ± 0.51 DSS
drug sensitivity score [8, 23]: 9.13 ± 1 DSS
drug sensitivity score [8, 24]: 9.17 ± 0.32 DSS
